Data published in US9399646B2 (Genentech, Inc., priority 2010, dated 2016).

Tests used:
[1] = test system: MCF-7 cells; test: Breast cancer cell viability assay (CellTiter-Glo, 5 days); format: cell-based; settings: 5 days' compound exposure; for IC50: Homo sapiens, MCF7, 120 h
How it was run: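 Eleven-point semilog compound series, final 0.3-0.000003 μM, added to overnight-adhered MCF-7 cells (320/well; RPMI, 10% FBS, 20 mM HEPES) for 5 days. Viability read by CellTiter-Glo luminescence, background from medium without cells subtracted, expressed relative to untreated cells.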

[2] = target: T1, ER-α in MCF-7 cells (Homo sapiens, UniProt P03372); test: Breast cancer cell ER-α in cell western assay (SP1); format: cell-based; design: endogenous in cells; host or cells: MCF-7; settings: 4 or 24 hr post compound addition; for Emax: MCF7, SP1 antibody, read-out: ER-α In Cell Western Assay (SP1) Max Response; for DC50: SP1 antibody, read-out: ER-α In Cell Western Assay (SP1) IC50
T1 sequence (P03372 1-595): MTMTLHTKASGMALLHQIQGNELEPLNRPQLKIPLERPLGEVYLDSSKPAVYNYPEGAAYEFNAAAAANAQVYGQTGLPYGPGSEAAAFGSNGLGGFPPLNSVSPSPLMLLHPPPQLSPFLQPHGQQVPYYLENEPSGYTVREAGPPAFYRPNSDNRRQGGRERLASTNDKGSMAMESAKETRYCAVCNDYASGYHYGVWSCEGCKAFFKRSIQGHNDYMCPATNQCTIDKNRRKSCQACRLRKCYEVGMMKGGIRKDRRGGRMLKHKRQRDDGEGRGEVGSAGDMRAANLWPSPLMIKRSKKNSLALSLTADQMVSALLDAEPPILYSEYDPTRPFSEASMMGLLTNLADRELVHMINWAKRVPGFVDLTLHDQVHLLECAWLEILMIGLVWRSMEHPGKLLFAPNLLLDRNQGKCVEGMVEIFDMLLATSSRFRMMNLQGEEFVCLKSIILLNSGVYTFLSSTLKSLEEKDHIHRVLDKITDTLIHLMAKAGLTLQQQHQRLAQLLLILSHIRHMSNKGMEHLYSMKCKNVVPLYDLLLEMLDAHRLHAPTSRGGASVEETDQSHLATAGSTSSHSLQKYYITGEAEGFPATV
How it was run: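 ER-α protein levels were measured in MCF-7 cells after 4 or 24 hr compound exposure (final 0.3–0.000003 μM) in RPMI containing 10% charcoal-stripped FBS.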

Structure (SMILES)	MCF7 Viability Assay Max Response [1]	IC50 [1] [nM]	Emax [2] [%]	DC50 [2] [nM]
CC/C(=C(/c1ccc(/C=C/C(=O)O)cc1)c1ccc2nonc2c1)c1ccccc1 [Compound 137, (E)-3-(4-((E)-1-(Benzo[c][1,2,5]oxadiazol-5-yl)-2-phenylbut-1-en-1-yl)phenyl)acrylic acid]	+ (+ = a single % value < 40%)	> 100	≥ 40	> 100
CC/C(=C(/c1ccc(/C=C/C(=O)O)cc1)c1ccn2nncc2c1)c1ccccc1 [Compound 138, (E)-3-(4-((E)-1-([1,2,3]Triazolo[1,5-a]pyridin-5-yl)-2-phenylbut-1-en-1-yl)phenyl)acrylic acid]	+ (+ = a single % value < 40%)	> 100	≥ 40	> 100
CC/C(=C(/c1ccc(/C=C/C(=O)O)cc1)c1ccc2scnc2c1)c1ccccc1 [Compound 141, (E)-3-(4-((E)-1-(Benzo[d]thiazol-5-yl)-2-phenylbut-1-en-1-yl)phenyl)acrylic acid]	++ (++ = a single % value ≧ 40%)	≤ 100	≥ 40	≤ 100
CC/C(=C(/c1ccc(/C=C/C(=O)O)cc1)c1cc2ccccc2s1)c1ccccc1 [Compound 142, (E)-3-(4-((E)-1-(Benzo[b]thiophen-2-yl)-2-phenylbut-1-en-1-yl)phenyl)acrylic acid]	++ (++ = a single % value ≧ 40%)	≤ 100	≥ 40	≤ 100
CC/C(=C(/c1ccc(/C=C/C(=O)O)cc1)c1ccc2c(cnn2-c2ccccc2)c1)c1ccccc1 [Compound 143, (E)-3-(4-((E)-2-Phenyl-1-(1-phenyl-1H-indazol-5-yl)but-1-en-1-yl)phenyl)acrylic acid]	++ (++ = a single % value ≧ 40%)	> 100	≥ 40	> 100
CC/C(=C(/c1ccc(/C=C/C(=O)O)cc1)c1ccc2nsnc2c1)c1ccccc1 [Compound 144, (E)-3-(4-((E)-1-(Benzo[c][1,2,5]thiadiazol-5-yl)-2-phenylbut-1-en-1-yl)phenyl)acrylic acid]	++ (++ = a single % value ≧ 40%)	> 100	≥ 40	> 100
CC/C(=C(/c1ccc(/C=C/C(=O)O)cc1)c1ccc2c(cnn2-c2cccnc2)c1)c1ccccc1 [Compound 145, (E)-3-(4-((E)-2-Phenyl-1-(1-(pyridin-3-yl)-1H-indazol-5-yl)but-1-en-1-yl)phenyl)acrylic acid]	++ (++ = a single % value ≧ 40%)	> 100	≥ 40	> 100
CC/C(=C(/c1ccc(/C=C/C(=O)O)cc1)c1ccc2ocnc2c1)c1ccccc1 [Compound 146]	++ (++ = a single % value ≧ 40%)	> 100	≥ 40	> 100
CC/C(=C(/c1ccc(/C=C/C(=O)O)cc1)c1ccc2[nH]ncc2c1)c1ccccc1Oc1ccccc1 [Compound 147, (E)-3-(4-((E)-1-(1H-Indazol-5-yl)-2-(2-phenoxyphenyl)but-1-en-1-yl)phenyl)acrylic acid]	++ (++ = a single % value ≧ 40%)	≤ 100	≥ 40	≤ 100
CC/C(=C(/c1ccc(/C=C/C(=O)O)cc1)c1cnn2ccccc12)c1ccccc1 [Compound 148, (E)-3-(4-((E)-2-Phenyl-1-(pyrazolo[1,5-a]pyridin-3-yl)but-1-en-1-yl)phenyl)acrylic acid]	++ (++ = a single % value ≧ 40%)	> 100	≥ 40	> 100
CC/C(=C(/c1ccc(/C=C/C(=O)O)cc1)c1ncc2[nH]ncc2n1)c1ccccc1 [Compound 149, (E)-3-(4-((E)-2-Phenyl-1-(1H-pyrazolo[4,3-d]pyrimidin-5-yl)but-1-en-1-yl)phenyl)acrylic acid]	+ (+ = a single % value < 40%)	> 100	≥ 40	> 100
CC/C(=C(/c1ccc(/C=C/C(=O)O)cc1)c1ccc(O)nc1)c1ccccc1 [Compound 152, (E)-3-(4-((E)-1-(6-Hydroxypyridin-3-yl)-2-phenylbut-1-en-1-yl)phenyl)acrylic acid]	+ (+ = a single % value < 40%)	> 100	≥ 40	–
Cc1cscc1/C(=C(\c1ccc(/C=C/C(=O)O)cc1)c1ccc2[nH]ncc2c1)C(C)C [Compound 154, (E)-3-(4-((E)-1-(1H-Indazol-5-yl)-3-methyl-2-(4-methylthiophen-3-yl)but-1-en-1-yl)phenyl)acrylic acid]	++ (++ = a single % value ≧ 40%)	≤ 100	≥ 40	≤ 100
CC/C(=C(/c1ccc(/C=C/C(=O)O)cc1)c1ccc2sncc2c1)c1ccccc1 [Compound 156, (E)-3-(4-((E)-1-(Benzo[d]isothiazol-5-yl)-2-phenylbut-1-en-1-yl)phenyl)acrylic acid]	++ (++ = a single % value ≧ 40%)	> 100	≥ 40	> 100
CC/C(=C(/c1ccc(/C=C/C(=O)O)cc1)c1ccc2sc(C)nc2c1)c1ccccc1 [Compound 159, (E)-3-(4-((E)-1-(2-Methylbenzo[d]thiazol-5-yl)-2-phenylbut-1-en-1-yl)phenyl)acrylic acid]	++ (++ = a single % value ≧ 40%)	> 100	≥ 40	> 100
CC/C(=C(/c1ccc(/C=C/C(=O)O)cc1)c1ccc2[nH]ncc2c1F)c1ccc(Oc2ncccn2)cc1 [Compound 160, (E)-3-(4-((E)-1-(4-Fluoro-1H-indazol-5-yl)-2-(4-(pyrimidin-2-yloxy)phenyl)but-1-en-1-yl)phenyl)acrylic acid]	++ (++ = a single % value ≧ 40%)	≤ 100	≥ 40	≤ 100
CC/C(=C(/c1ccc(/C=C/C(=O)O)cc1)c1ccc2[nH]ncc2c1F)c1ccc(Oc2cnccn2)cc1 [Compound 161, (E)-3-(4-((E)-1-(4-Fluoro-1H-indazol-5-yl)-2-(4-(pyrazin-2-yloxy)phenyl)but-1-en-1-yl)phenyl)acrylic acid]	++ (++ = a single % value ≧ 40%)	≤ 100	≥ 40	≤ 100
CS(=O)(=O)c1ccc(Oc2ccc(/C(=C(\c3ccc(/C=C/C(=O)O)cc3)c3ccc4[nH]ncc4c3)C3CCC3)cc2)nc1 [Compound 162, (E)-3-(4-((E)-2-Cyclobutyl-1-(1H-indazol-5-yl)-2-(4-((5-(methylsulfonyl)pyridin-2-yl)oxy)phenyl)vinyl)phenyl)acrylic acid]	++ (++ = a single % value ≧ 40%)	≤ 100	≥ 40	≤ 100
CC/C(=C(/c1ccc(/C=C/C(=O)O)cc1)c1coc2c(OC)cccc12)c1ccccc1 [Compound 163, (E)-3-(4-((E)-1-(7-Methoxybenzofuran-3-yl)-2-phenylbut-1-en-1-yl)phenyl)acrylic acid]	++ (++ = a single % value ≧ 40%)	≤ 100	≥ 40	≤ 100
CC/C(=C(/c1ccc(/C=C/C(=O)O)cc1)c1coc2c(OC)cccc12)c1ccc(F)cc1Cl [Compound 164, (E)-3-(4-((E)-2-(2-Chloro-4-fluorophenyl)-1-(7-methoxybenzofuran-3-yl)but-1-en-1-yl)phenyl)acrylic acid]	++ (++ = a single % value ≧ 40%)	≤ 100	≥ 40	≤ 100
CC/C(=C(/c1ccc(/C=C/C(=O)O)cc1)c1ccc2ccncc2c1)c1ccccc1 [Compound 168, (E)-3-(4-((E)-1-(Isoquinolin-7-yl)-2-phenylbut-1-en-1-yl)phenyl)acrylic acid]	++ (++ = a single % value ≧ 40%)	> 100	≥ 40	> 100
CC/C(=C(/c1ccc(/C=C/C(=O)O)cc1)c1cc2ccccc2o1)c1ccc(F)cc1Cl [Compound 169, (E)-3-(4-((E)-1-(Benzofuran-2-yl)-2-(2-chloro-4-fluorophenyl)but-1-en-1-yl)phenyl)acrylic acid]	++ (++ = a single % value ≧ 40%)	≤ 100	≥ 40	≤ 100
